From ChEMBL document CHEMBL4373722, “Selective, Small-Molecule Co-Factor Binding Site Inhibition of a Su(var)3-9, Enhancer of Zeste, Trithorax Domain Containing Lysine Methyltransferase” (J Med Chem, 2019)
Each block holds one compound with its values, some of them ahead of it. Calls of active or inactive are those of the source. No cut-off for these calls is given here.

Legend:
[1] = biological target: T1, N-lysine methyltransferase SMYD2 (Homo sapiens, UniProt Q9NRG4); assay: Inhibition of recombinant human SMYD2 (1 to 433 residues) expressed in baculovirus infected Sf9 insect cells using biotinylated-p53 peptide (361 to 380 residues) as substrate measured after 50 mins in presence of 70 nM [3H]-SAM by scintillation proximity assay
T1 sequence (Q9NRG4 whole entry, the tested form may be a part): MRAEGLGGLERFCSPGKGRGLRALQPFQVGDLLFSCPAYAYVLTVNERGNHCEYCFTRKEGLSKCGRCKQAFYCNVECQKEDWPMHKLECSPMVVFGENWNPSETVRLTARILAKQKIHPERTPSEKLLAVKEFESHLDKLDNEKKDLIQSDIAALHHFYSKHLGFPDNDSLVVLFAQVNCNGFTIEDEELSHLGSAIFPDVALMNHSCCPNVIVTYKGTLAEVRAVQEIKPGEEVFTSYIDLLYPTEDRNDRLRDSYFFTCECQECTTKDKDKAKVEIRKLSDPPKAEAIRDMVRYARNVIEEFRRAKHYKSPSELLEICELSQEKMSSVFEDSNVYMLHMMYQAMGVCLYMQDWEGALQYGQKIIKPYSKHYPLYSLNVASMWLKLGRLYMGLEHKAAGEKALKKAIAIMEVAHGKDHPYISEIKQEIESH

[2] = biological target: T1, N-lysine methyltransferase SMYD2; assay: Inhibition of recombinant human SMYD2 (1 to 433 residues) expressed in baculovirus infected Sf9 insect cells using biotinylated-p53 peptide (361 to 380 residues) as substrate measured after 120 mins in presence of 20 uM [3H]-SAM by scintillation proximity assay
[3] = biological target: T1, N-lysine methyltransferase SMYD2; assay: Inhibition of V5-tagged SMYD2 (unknown origin) transfected in human MCF7 cells co-transfected with FLAG-tagged p53 assessed as reduction in p53 methylation at K370 residue measured after 20 hrs by immunoblot analysis; format: cell-based
[4] = biological target: T1, N-lysine methyltransferase SMYD2; assay: Inhibition of V5-tagged SMYD2 (unknown origin) transfected in human MDA-MB-231 cells co-transfected with FLAG-tagged p53 assessed as reduction in p53 methylation at K370 residue measured after 20 hrs by immunoblot analysis; format: cell-based
[5] = biological target: T1, N-lysine methyltransferase SMYD2; assay: Inhibition of V5-tagged SMYD2 (unknown origin) transfected in human HeLa cells co-transfected with FLAG-tagged p53 assessed as reduction in p53 methylation at K370 residue measured after 20 hrs by immunoblot analysis; format: cell-based
[6] = biological target: T1, N-lysine methyltransferase SMYD2; assay: Inhibition of V5-tagged SMYD2 (unknown origin) transfected in HEK293 cells co-transfected with FLAG-tagged p53 assessed as reduction in p53 methylation at K370 residue measured after 20 hrs by immunoblot analysis; format: cell-based
[7] = biological target: T1, N-lysine methyltransferase SMYD2; assay: Inhibition of V5-tagged SMYD2 (unknown origin) transfected in human CAL120 cells co-transfected with FLAG-tagged p53 assessed as reduction in p53 methylation at K370 residue measured after 20 hrs by immunoblot analysis; format: cell-based
[8] = biological target: T1, N-lysine methyltransferase SMYD2; assay: Inhibition of V5-tagged SMYD2 (unknown origin) transfected in human U2OS cells co-transfected with FLAG-tagged p53 assessed as reduction in p53 methylation at K370 residue measured after 20 hrs by immunoblot analysis; format: cell-based
MCF7 [9] = assay: Cytotoxicity against human MCF7 cells up to 10 uM measured after 5 days by IncuCyte zoom live cell analysis; format: cell-based; conditions: mcf7, 120 h
U2OS = assay: Cytotoxicity against human U2OS cells up to 10 uM measured after 5 days by IncuCyte zoom live cell analysis; format: cell-based; conditions: 120 h
[10] = Cytotoxicity against human TERA2D cells up to 10 uM measured after 5 days by IncuCyte zoom live cell analysis; format: cell-based; conditions: 120 h
[11] = biological target: T1, N-lysine methyltransferase SMYD2; assay: Competitive inhibition of recombinant human SMYD2 (1 to 433 residues) expressed in baculovirus infected Sf9 insect cells using biotinylated-p53 peptide (361 to 380 residues) as substrate measured after 50 mins in presence of varying levels of [3H]-SAM by scintillation proximity assay
[12] = biological target: T1, N-lysine methyltransferase SMYD2; assay: Mixed inhibition of recombinant human SMYD2 (1 to 433 residues) expressed in baculovirus infected Sf9 insect cells using varying levels of biotinylated-p53 peptide (361 to 380 residues) as substrate measured after 50 mins in presence of 2 uM [3H]-SAM by scintillation proximity assay
[13] = biological target: Histone-lysine N-methyltransferase KMT5B (Homo sapiens) (UniProt Q4FZB7); assay: Inhibition of SUV420H1 (unknown origin) at 1 uM using biotin-labeled peptide as substrate and [3H]-SAM measured after 1 hr by scintillation proximity assay
Sequence of Histone-lysine N-methyltransferase KMT5B (Homo sapiens) (Q4FZB7 whole entry, looked up): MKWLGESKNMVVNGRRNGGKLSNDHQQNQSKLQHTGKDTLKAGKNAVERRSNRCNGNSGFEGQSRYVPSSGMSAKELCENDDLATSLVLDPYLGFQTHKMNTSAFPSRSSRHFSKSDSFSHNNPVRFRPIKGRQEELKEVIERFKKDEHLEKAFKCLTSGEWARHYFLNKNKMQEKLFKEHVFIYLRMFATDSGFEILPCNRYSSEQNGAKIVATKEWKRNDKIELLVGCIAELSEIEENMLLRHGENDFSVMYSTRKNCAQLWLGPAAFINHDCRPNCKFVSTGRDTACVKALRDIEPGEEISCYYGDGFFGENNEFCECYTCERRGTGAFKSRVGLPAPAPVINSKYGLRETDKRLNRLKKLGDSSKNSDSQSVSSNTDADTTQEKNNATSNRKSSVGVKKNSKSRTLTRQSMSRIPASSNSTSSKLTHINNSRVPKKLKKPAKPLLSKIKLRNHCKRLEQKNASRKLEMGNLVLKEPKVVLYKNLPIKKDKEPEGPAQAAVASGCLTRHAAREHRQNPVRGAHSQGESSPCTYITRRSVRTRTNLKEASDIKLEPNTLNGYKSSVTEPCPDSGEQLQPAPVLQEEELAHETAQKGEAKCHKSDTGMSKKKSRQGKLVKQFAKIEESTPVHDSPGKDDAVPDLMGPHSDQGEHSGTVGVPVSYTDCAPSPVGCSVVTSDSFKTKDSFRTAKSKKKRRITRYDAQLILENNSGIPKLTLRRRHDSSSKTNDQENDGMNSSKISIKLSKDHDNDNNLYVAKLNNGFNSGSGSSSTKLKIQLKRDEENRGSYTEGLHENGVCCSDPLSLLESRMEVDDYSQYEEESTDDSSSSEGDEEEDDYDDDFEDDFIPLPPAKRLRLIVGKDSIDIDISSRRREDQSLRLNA

[14] = biological target: Histone-lysine N-methyltransferase KMT5C (Homo sapiens) (UniProt Q86Y97); assay: Inhibition of SUV420H2 (unknown origin) at 1 uM using biotin-labeled peptide as substrate and [3H]-SAM measured after 1 hr by scintillation proximity assay
Sequence of Histone-lysine N-methyltransferase KMT5C (Homo sapiens) (Q86Y97 whole entry, looked up, the tested form may be a part): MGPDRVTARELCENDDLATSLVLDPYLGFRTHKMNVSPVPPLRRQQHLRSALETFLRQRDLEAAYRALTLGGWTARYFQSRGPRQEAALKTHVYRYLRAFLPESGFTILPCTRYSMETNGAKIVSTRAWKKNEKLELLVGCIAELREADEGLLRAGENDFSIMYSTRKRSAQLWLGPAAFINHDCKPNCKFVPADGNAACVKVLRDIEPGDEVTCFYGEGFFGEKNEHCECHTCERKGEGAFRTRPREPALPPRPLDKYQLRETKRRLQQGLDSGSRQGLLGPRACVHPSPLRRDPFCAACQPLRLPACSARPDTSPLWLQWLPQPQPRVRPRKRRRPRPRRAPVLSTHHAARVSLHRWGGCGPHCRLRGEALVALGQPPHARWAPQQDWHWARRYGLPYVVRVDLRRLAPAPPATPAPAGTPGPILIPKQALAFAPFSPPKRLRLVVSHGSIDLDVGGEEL

Homo sapiens [15] = species on record: Homo sapiens; assay: Selectivity ratio of IC50 for SUV420H1 (unknown origin) to IC50 for recombinant human SMYD2 (1 to 433 residues) expressed in baculovirus infected Sf9 insect cells at 40 uM using biotinylated-p53 peptide (361 to 380 residues) as substrate measured after 50 mins in presence of 70 nM [3H]-SAM
[16] = biological target: Histone-lysine N-methyltransferase KMT5B (Homo sapiens) (UniProt Q4FZB7); assay: Inhibition of SUV420H1 in human MCF7 cells assessed as decrease in H4K20me3 level up to 50 uM measured after 2 days by immunoblot analysis; format: cell-based
[17] = biological target: Histone-lysine N-methyltransferase KMT5C (Homo sapiens) (UniProt Q86Y97); assay: Inhibition of SUV420H2 in human MCF7 cells assessed as decrease in H4K20me3 level up to 50 uM measured after 2 days by immunoblot analysis; format: cell-based
Homo sapiens [18] = species on record: Homo sapiens; assay: Selectivity ratio of IC50 for SUV420H1 in human MCF7 cells to IC50 for V5-tagged SMYD2 (unknown origin) transfected in human MCF7 cells co-transfected with FLAG-tagged p53; format: cell-based
Homo sapiens [19] = species on record: Homo sapiens; assay: Selectivity ratio of IC50 for SUV420H2 in human MCF7 cells to IC50 for V5-tagged SMYD2 (unknown origin) transfected in human MCF7 cells co-transfected with FLAG-tagged p53; format: cell-based
[20] = Lipophilicity, log D of the compound; format: physicochemical; conditions: octanol/water
[21] = biological target: T1, N-lysine methyltransferase SMYD2; assay: Inhibition of V5-tagged SMYD2 (unknown origin) transfected in human MCF7 cells co-transfected with FLAG-tagged p53 assessed as reduction in p53 methylation at K370 residue at 10 uM measured after 20 hrs by immunoblot analysis relative to control; format: cell-based
Homo sapiens [22] = species on record: Homo sapiens; assay: Selectivity ratio of IC50 for SUV420H2 (unknown origin) to IC50 for recombinant human SMYD2 (1 to 433 residues) expressed in baculovirus infected Sf9 insect cells at 40 uM using biotinylated-p53 peptide (361 to 380 residues) as substrate measured after 50 mins in presence of 70 nM [3H]-SAM
[23] = biological target: T1, N-lysine methyltransferase SMYD2; assay: Inhibition of recombinant human SMYD2 (1 to 433 residues) expressed in baculovirus infected Sf9 insect cells at 40 uM using biotinylated-p53 peptide (361 to 380 residues) as substrate measured after 50 mins in presence of 70 nM [3H]-SAM by scintillation proximity assay relative to control
[24] = biological target: T1, N-lysine methyltransferase SMYD2; assay: Inhibition of V5-tagged SMYD2 (unknown origin) transfected in human MCF7 cells co-transfected with FLAG-tagged p53 assessed as reduction in p53 methylation at K370 residue at 10 to 30 uM measured after 20 hrs by immunoblot analysis; format: cell-based
[25] = biological target: T1, N-lysine methyltransferase SMYD2; conditions: MCF7, 1 uM
Description: Inhibition of V5-tagged SMYD2 (unknown origin) transfected in human MCF7 cells co-transfected with FLAG-tagged p53 assessed as reduction in p53 methylation at K370 residue at 1 uM measured after 20 hrs by immunoblot analysis relative to control

[26] = biological target: T1, N-lysine methyltransferase SMYD2; assay: Inhibition of V5-tagged SMYD2 (unknown origin) transfected in human MCF7 cells co-transfected with FLAG-tagged p53 assessed as reduction in p53 methylation at K370 residue at 30 uM measured after 20 hrs by immunoblot analysis; format: cell-based
MCF7 [27] = assay: Effect on total p53 level in human MCF7 cells co-transfected with V5-tagged SMYD2/FLAG-tagged p53 up to 30 uM measured after 20 hrs by immunoblot analysis; format: ADME, cell-based; conditions: mcf7, 20 h

IC50 [1]: 0.008 µM
IC50 [2]: 0.016 µM
IC50 [3]: 1.3 µM
IC50 [4]: 1.3 to 3 µM
IC50 [5]: 1.3 to 3 µM
IC50 [6]: 1.3 to 3 µM
IC50 [7]: 1.3 to 3 µM
IC50 [8]: 1.3 to 3 µM
inhibition [11]: Active
inhibition [12]: Active
inhibition [13]: Active
inhibition [14]: Active
inhibition [16]: inactive
inhibition [17]: inactive
logD [20]: 1.3
inhibition [21]: 100%
Compound: Cc1cc2c(ncn2C2(C)CN(C(=O)c3ccn(CC4CCN([C@H]5C=CCCCC5)CC4)c3)C2)c(N)n1
Activity (MCF7 [9]): Non-Toxic
Activity (U2OS): Non-Toxic
Activity [10]: Non-Toxic
Ratio IC50 (Homo sapiens [15]): > 60
Ratio IC50 (Homo sapiens [18]): 30
Ratio IC50 (Homo sapiens [19]): 30
Ratio IC50 (Homo sapiens [22]): > 60

inhibition [24]: inactive
Compound: Cc1cc2c(ncn2C2(C)CN(C(=O)c3ccn(CC4CCN([C@@H]5C=CCCCC5)CC4)c3C)C2)c(N)n1

IC50 [1]: 0.006 µM
IC50 [2]: 0.023 µM
inhibition [26]: Active
Compound: Cc1nc(N)c2ncn(C3CN(C(=O)c4ccn(CC5CCN(C6C=CCCCC6)CC5)c4)C3)c2n1 (configuration not stated)
Activity (MCF7 [27]): Non-Toxic

The next lines start with the compound.

Compound: Cc1nc(N)c2ncn(C3CN(C(=O)c4ccn(CC5CCN(C6CCCCCC6)CC5)c4)C3)c2n1
IC50 [1]: 0.023 µM
IC50 [2]: 4 µM

Compound: Cc1nc(N)c2ncn(C3CN(C(=O)c4cc(CC5CCN(C6CCCCCC6)CC5)n(C)n4)C3)c2n1
IC50 [1]: 0.032 µM
IC50 [2]: 3 µM

Compound: CC(C)N1CCN(Cc2cc(C(=O)N3CC(n4cnc5c(N)ncnc54)C3)nn2C)CC1
inhibition [23]: > 50%
IC50 [1]: 0.76 µM

Compound: CCN(C(=O)CO)[C@H]1CN(/C(=N\C#N)Nc2cccc(OC(F)F)c2)N=C1c1ccc(Cl)c(Cl)c1
inhibition [25]: 100%

Compound: Cc1nc(N)c2ncn(C3(C)CN(C(=O)c4cc(CN5CCN(C6CCCCCC6)CC5)n(C)n4)C3)c2n1
IC50 [1]: 0.058 µM
IC50 [2]: 3 µM
